Measurements from patent US11578067B2, “Compound, and method for producing regulatory T cells” (Kyoto University, priority 2017, dated 2023).

Legend:
CDK19 = CDK19 (Homo sapiens, UniProt Q9BWU1); experiment: CDK19 kinase activity measurement (QSS Assist CDC2L6/CycC_ELISA kit)
Th1-type asthma model = experiment: Th1-type asthma model, airway resistance after methacholine; type: in vivo, mouse; details: 0.5 mg/kg oral once a day, 17 days, 25 mg/mL methacholine
naive Th cells = experiment: Induction from naive T cells to Tregs by CDK8/19 inhibitory drugs (CD25+ Foxp3+ cells, EC150); type: cell-based, mouse; details: concentration giving 150% CD25+ Foxp3+ cells versus 0.1% DMSO, 44 hours, geometric average of three trials
Protocol: The naive T cells were generated by the following method. […] Naive Th cells were prepared from the cell suspension using Naive CD4^+ T cell Isolation Kit, mouse (manufactured by Miltenyi Biotec). […] Further, Anti-Biotin MicroBeads and CD44 MicroBeads were added, followed by incubation at 4° C. for 10 minutes and then a centrifugation operation (300xg, 10 minutes). After the removal of the supernatant, the cells were resuspended in MEM and applied to an LS column (manufactured by Miltenyi Biotech). The cells contained in the flow-through liquid were used in the subsequent experiments. The prepared naive Th cells (2×10^5 cells) were stimulated with an anti-CD3/CD28 antibody (Gibco Dynabeads Mouse T-Activator CD3/CD28; manufactured by Thermo Fisher Scientific) in the presence of various CDK8/19 inhibitory drugs (usage amount: from 1 nM to 10,000 nM [[μM]]) at 5% CO2 at 37° C. […] The stained cells were measured using Canto II (manufactured by BD) by a flow cytometry method, and a proportion of CD25^+ Foxp3^+ cells in CD4^+ viable cells was analyzed using FlowJo (manufactured by FlowJo).

CDK8 = CDK8 (Homo sapiens, UniProt P49336); experiment: CDK8 kinase activity measurement (QSS Assist CDK8/CycC_ELISA kit)
Chain of CDK8 (P49336 whole entry): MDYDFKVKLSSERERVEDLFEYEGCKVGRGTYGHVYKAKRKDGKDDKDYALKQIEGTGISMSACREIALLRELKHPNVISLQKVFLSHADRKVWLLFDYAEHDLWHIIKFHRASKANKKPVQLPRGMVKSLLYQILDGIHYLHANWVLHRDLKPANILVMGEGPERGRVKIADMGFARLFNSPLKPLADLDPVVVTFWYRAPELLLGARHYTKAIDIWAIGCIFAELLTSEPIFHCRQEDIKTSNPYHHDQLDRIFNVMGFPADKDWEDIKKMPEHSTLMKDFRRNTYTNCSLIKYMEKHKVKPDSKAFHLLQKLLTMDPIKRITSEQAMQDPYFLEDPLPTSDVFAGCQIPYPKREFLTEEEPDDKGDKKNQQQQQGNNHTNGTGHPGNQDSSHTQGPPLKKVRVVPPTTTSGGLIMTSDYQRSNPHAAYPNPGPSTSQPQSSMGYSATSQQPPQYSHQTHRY
Chain of CDK8 (P24863 whole entry partner): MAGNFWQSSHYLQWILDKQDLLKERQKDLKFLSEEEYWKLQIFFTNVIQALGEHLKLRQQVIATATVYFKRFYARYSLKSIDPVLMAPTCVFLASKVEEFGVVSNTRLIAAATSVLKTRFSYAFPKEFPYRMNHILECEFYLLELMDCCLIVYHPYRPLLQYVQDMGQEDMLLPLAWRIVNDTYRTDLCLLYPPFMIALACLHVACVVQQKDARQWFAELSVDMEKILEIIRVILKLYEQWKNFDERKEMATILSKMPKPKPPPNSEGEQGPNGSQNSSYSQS

[1] = test system: mouse actively-sensitized antibody-induced nasal allergy model; experiment: Actively-sensitized antibody-induced nasal allergy model, nasal rubbing; type: in vivo
Protocol: The mouse actively-sensitized antibody-induced nasal allergy model was generated by the following method. Seven-week-old BALB/c mice (manufactured by SLC, male) were initially sensitized by intraperitoneal administration of 200 μL of a mixed liquid of OVA (manufactured by Wako Pure Chemical Industries, Ltd.) (0.5 mg/mL) (100 μg/mouse), 5 mg/mL of aluminum hydroxide (ALUM; manufactured by Wako Pure Chemical Industries, Ltd.), and 1.5 μg/mL of pertussis toxin (manufactured by Wako Pure Chemical Industries, Ltd.). Next, 5 days after the initial sensitization, as additional sensitization, OVA (50 μg/mouse) was administered into the dorsal skin of the mice to perform systemic sensitization. After that, OVA (100 μg/mouse) was administered to the mice as nasal drops at a frequency of once a day as local sensitization for 8 days from day 18 after the initial sensitization to elicit a nasal allergy symptom due to active sensitization.
A 0.5% (w/v) methylcellulose solution serving as a vehicle was used for a vehicle control group, and dexamethasone (manufactured by Tokyo Chemical Industry Co., Ltd.) was used for a positive control.

OVA-induced asthma model = experiment: OVA-induced asthma model, airway resistance after methacholine; type: in vivo, mouse; details: 0.5 mg/kg oral once a day, 34 days, 25 mg/mL methacholine
[2] = test system: CD4+ CD25− Foxp3− CD62L+ CD44− naive T cells; experiment: In vitro Foxp3 induction in naive T cells (Foxp3-GFP, flow cytometry); type: cell-based, mouse; details: hTGF-β1 2 ng/mL alone, anti-CD3/CD28, 72 hours
Protocol: The eFox mice were generated in accordance with a method described in Science. […] The prepared total lymphocytic cells were stained with an anti-CD4 antibody (RM-4.5; manufactured by BD), an anti-CD62L antibody (MEL-14; manufactured by BD), and an anti-CD44 antibody (IM7; manufactured by BD), and CD4^+ CD25^− Foxp3^− CD62L^+ CD44^− naive T cells were prepared using FACSAria™ II (manufactured by BD).
The cells after the treatment were stained with an anti-CD4 antibody (manufactured by BD), and a proportion of Foxp3-GFP-positive cells was analyzed by a flow cytometry method.

[3] = test system: human naive CD4+ T cells (CD4+ CD25− CD45RA+ Foxp3−); experiment: Foxp3 induction in human naive CD4+ T cells with anti-TGF-β antibody or TGF-β; type: cell-based; details: hTGF-β1 2 ng/mL alone, hIL-2, 72 hours
Protocol: Human naive CD4^+ T cells (CD4^+ CD25^− CD45RA^+ Foxp3^−) were prepared from human peripheral blood mononuclear cells (manufactured by Wako Pure Chemical Industries, Ltd.) in the same manner as in Example 17. As shown in the following items (i) to (iv), the prepared naive T cells (2×10^5 cells) were stimulated using 5 μL of an anti-CD3/CD28 antibody (Gibco Dynabeads Human T-Activator CD3/CD28; manufactured by Thermo Fisher Scientific) in the presence/absence of 2 ng/mL of hTGF-β1 (manufactured by R&D) or 10 μg/mL of an anti-TGF-β antibody (manufactured by R&D), hIL-2 (manufactured by Shionogi & Co., Ltd.) (50 U/ml), and 100 nM of Compound 1 Salt, and treated under a 5% CO2 atmosphere at 37° C. for 72 hours.
(§1) The cells after the treatment were stained with an anti-CD4 antibody (manufactured by BD) and an anti-Foxp3 antibody (manufactured by eBioscience), and a proportion of Foxp3-positive cells was analyzed by a flow cytometry method.

[4] = test system: human effector memory CD4+ T cells (CD4+ CD25− CD45RA− Foxp3−); experiment: Foxp3 induction in human effector memory CD4+ T cells; type: cell-based; details: TGF-β 2 ng/mL alone, hIL-2, 72 hours
Protocol: Human peripheral blood mononuclear cells (manufactured by Wako Pure Chemical Industries, Ltd.) were stained using an anti-CD4 antibody (RPA-T4; manufactured by BD), an anti-CD25 antibody (M-A251; manufactured by BD), and an anti-CD45RA antibody (HI100; manufactured by BD), and human effector memory CD4^+ T cells (CD4^+ CD25^− CD45RA^− Foxp3^−) were prepared using FACSAria™ II (manufactured by BD).
as §1

Chain of CDK19 (Q9BWU1 whole entry): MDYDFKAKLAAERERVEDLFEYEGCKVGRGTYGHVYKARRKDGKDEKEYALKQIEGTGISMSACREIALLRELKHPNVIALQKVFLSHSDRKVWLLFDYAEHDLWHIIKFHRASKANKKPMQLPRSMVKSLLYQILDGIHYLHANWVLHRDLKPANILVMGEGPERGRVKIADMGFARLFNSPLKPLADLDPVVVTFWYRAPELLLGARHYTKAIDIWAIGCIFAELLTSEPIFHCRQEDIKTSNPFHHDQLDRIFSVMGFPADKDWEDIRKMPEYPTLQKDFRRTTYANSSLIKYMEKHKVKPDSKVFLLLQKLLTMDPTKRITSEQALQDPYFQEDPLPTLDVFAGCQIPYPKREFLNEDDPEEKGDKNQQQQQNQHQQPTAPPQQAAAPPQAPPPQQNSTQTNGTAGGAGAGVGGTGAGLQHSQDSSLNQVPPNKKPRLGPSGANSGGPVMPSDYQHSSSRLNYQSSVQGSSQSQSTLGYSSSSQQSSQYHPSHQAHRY
Chain of CDK19 (P24863 whole entry partner): as the sequence (P24863 whole entry partner) above

COc1ccc(N2CCC(n3c(-c4nccnc4N)nc4c(C)nccc43)CC2)cc1 [Compound 2, 3-{1-[1-(4-methoxyphenyl)piperidin-4-yl]-4-methyl-1H-imidazo[4,5-c]pyridin-2-yl}pyrazin-2-amine]
IC50 (CDK19): 1.9 nM | airway reactivity (sRaw) (Th1-type asthma model): suppressed an increase in airway reactivity | EC150 (naive Th cells): 10.2 nM | IC50 (CDK8): 0.7 nM | number of times of nasal rubbing ([1]; 1.0 mg/kg oral daily): significantly suppressed | number of times of nasal rubbing ([1]; 3.0 mg/kg oral daily): significantly suppressed | airway reactivity (sRaw) (OVA-induced asthma model): suppressed an increase in airway reactivity

NC(=O)[C@H](Nc1cncc(-c2ccc(O)c(Cl)c2)c1)c1ccccc1 [(R)-2-[5-(3-Chloro-4-hydroxyphenyl)-pyridin-3-ylamino]-2-phenylacetamide]
EC150 (naive Th cells): 2.8 nM

N#Cc1ccc2ncnc(NCCc3ccccc3)c2c1 [Senexin A]
EC150 (naive Th cells): 192.2 nM

TGF-β: hTGF-β1 (manufactured by R&D), used as control and in combination
proportion of Foxp3-GFP-positive cells [2]: 44.3% | proportion of Foxp3-positive cells [3]: 26.9% | proportion of Foxp3-positive cells [4]: 28.5%
